Assay results reported in the supplement of paper PMC10307832.

Legend:
Experiment in all cases: relative viability (nuclei count vs DMSO), 5 days (fraction); higher = more cells survive
Tosedostat + Alpelisib = compound: CC(C)C[C@@H](C(=O)N[C@H](C(=O)OC1CCCC1)c1ccccc1)[C@H](O)C(=O)NO [Tosedostat] + Cc1nc(NC(=O)N2CCC[C@H]2C(N)=O)sc1-c1ccnc(C(C)(C)C(F)(F)F)c1 [Alpelisib] (partner 2 µM)
In short: (§1)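 Each reported value is a median over duplicate plates. It expresses relative viability: treated-well nuclei count divided by vehicle-well nuclei count. Lung cancer cell lines in 1536-well plates were dosed by pin tool a day after seeding, alone with one drug or with a fixed anchor-drug dose plus five library-drug doses (not always all listed) in √10 steps, and nuclei were counted after 5 days.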

Tosedostat + Dasatinib = compound: CC(C)C[C@@H](C(=O)N[C@H](C(=O)OC1CCCC1)c1ccccc1)[C@H](O)C(=O)NO [Tosedostat] + Cc1nc(Nc2ncc(C(=O)Nc3c(C)cccc3Cl)s2)cc(N2CCN(CCO)CC2)n1 [Dasatinib] (partner 0.075 µM)
In short: as §1

[1] = compound: CC1=NN=C(O1)C2=NN=C(C=C2)N3CCC(CC3)OC4=C(C=CC(=C4)F)Cl + COc1cc2c(Oc3ccc(NC(=O)C4(C(=O)Nc5ccc(F)cc5)CC4)cc3F)ccnc2cc1OCCCN1CCOCC1 [Foretinib] (partner 0.25 µM)
In short: as §1

[2] = compound: CC1=NN=C(O1)C2=NN=C(C=C2)N3CCC(CC3)OC4=C(C=CC(=C4)F)Cl + C[C@@H](Oc1cc(-c2cnn(C3CCNCC3)c2)cnc1N)c1c(Cl)ccc(F)c1Cl [Crizotinib] (partner 1 µM)
In short: as §1

Cell Line	relative viability (Tosedostat + Alpelisib; first compound 0.02 µM)	relative viability (Tosedostat + Alpelisib; first compound 0.06325 µM)	relative viability (Tosedostat + Alpelisib; first compound 0.2 µM)	relative viability (Tosedostat + Alpelisib; first compound 0.6325 µM)	relative viability (Tosedostat + Alpelisib; first compound 2 µM)	relative viability (Tosedostat + Dasatinib; first compound 0.02 µM)	relative viability (Tosedostat + Dasatinib; first compound 0.06325 µM)	relative viability (Tosedostat + Dasatinib; first compound 0.2 µM)	relative viability (Tosedostat + Dasatinib; first compound 0.6325 µM)	relative viability (Tosedostat + Dasatinib; first compound 2 µM)	relative viability ([1]; first compound 0.253 µM)	relative viability ([1]; first compound 0.8 µM)	relative viability ([1]; first compound 2.53 µM)	relative viability ([1]; first compound 8 µM)	relative viability ([2]; first compound 0.253 µM)	relative viability ([2]; first compound 0.8 µM)	relative viability ([2]; first compound 2.53 µM)	relative viability ([2]; first compound 8 µM)
NCI-H2405	0.78	0.804	0.829	0.787	0.76	0.221	0.266	0.218	0.211	0.164	0.582	0.564	0.546	0.555	0.503	0.428	0.465	0.428
NCI-H3122	0.861	0.809	0.844	0.774	0.997	0.745	0.912	0.925	0.915	0.711	0.431	0.409	0.438	0.397	0.3	0.303	0.318	0.359
PC-3 [JPC-3]	1.03	1.03	1.06	0.924	0.727	0.999	1.06	0.929	0.621	0.7	0.774	0.923	0.874	0.855	0.754	0.791	0.818	0.75
PC-14	0.806	0.903	0.956	0.899	0.786	0.245	0.237	0.263	0.192	0.208	0.806	0.779	0.768	0.759	0.747	0.636	0.713	0.739
RERF-LC-KJ	0.677	0.955	0.777	0.742	0.57	0.873	0.77	0.771	0.623	0.511	0.617	0.533	0.544	0.519	0.496	0.498	0.495	0.458
SK-LU-1	1.19	0.981	0.772	0.842	0.491	0.184	0.191	0.219	0.197	0.203	0.698		0.696	0.557	0.895	0.732	0.826	0.589
SK-MES-1	0.814	1	0.832	0.802	0.689	0.285	0.237	0.329	0.213	0.229	0.824	0.835	0.939	0.855	0.773	0.807	0.81	0.724
SW 1573	0.578	0.76	0.641	0.588	0.567	0.572	0.36	0.368	0.317	0.314	0.99	0.86	0.909	0.569	0.777	0.827	0.795	0.664
